What was measured:
[1] = test system: cocklebur; assay: Test B pre/postemergence cocklebur; format: in vivo, Xanthium strumarium
How it was run: (§1)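 Response is a visual 0-to-10 score relative to untreated plants, where 0 means no effect and 10 means complete control, taken twelve to sixteen days after application. Treatments went onto soil at planting and onto foliage of 1- to 4-leaf plants, using a surfactant-containing non-phytotoxic solvent.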

[2] = test system: duck salad; assay: Test B flood test duck salad; format: in vivo, Heteranthera limosa; conditions: for Plant response rating, Ducksalad (0 to 10 scale, 0 is no effect, 10 is complete control) / Ducksalad plant response rating (0 to 10 scale, 0 is no effect, 10 is complete control): visual evaluation after twelve to sixteen days; for Ducksalad plant response rating (0 to 10 scale, 0 is no effect, 10 is complete control): under heading Pre-emergence
How it was run: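 Flood test on plants grown to the 2-leaf stage; treated plants kept in greenhouse twelve to sixteen days, then visually rated against controls on a 0 (no effect) to 10 (complete control) scale.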

[3] = test system: soybean; assay: Test B pre/postemergence soybean; format: in vivo, Glycine max
How it was run: as §1

[4] = test system: velvetleaf; assay: Test B pre/postemergence velvetleaf; format: in vivo, Abutilon theophrasti
How it was run: as §1

[5] = Postemergence, Rate 62 g/ha, scale 0 to 10, 0 is no effect, 10 is complete control
[6] = Postemergence, Rate 250 g/ha, scale 0 to 10, 0 no effect, 10 complete control
[7] = Preemergence, Rate 62 g/ha, scale 0 to 10 (0 no effect, 10 complete control)
[8] = Preemergence, Rate 125 g/ha, scale 0 to 10 (0 no effect, 10 complete control)
[9] = Preemergence, Rate 250 g/ha, scale of 0 to 10 where 0 is no effect and 10 is complete control
[10] = Preemergence, Rate 500 g/ha, scale 0 (no effect) to 10 (complete control)
[11] = Rate 125 g/ha, Postemergence, scale 0 to 10, 0 no effect, 10 complete control
[12] = Rate 500 g/ha, Postemergence, scale 0 to 10, 0 no effect, 10 complete control
[13] = Rate 125 g/ha, Postemergence section (flood test species), scale 0 to 10, 0 no effect, 10 complete control
[14] = Rate 500 g/ha, headed Pre-emergence (flood test species), scale 0 to 10 (0 no effect, 10 complete control)
[15] = flood test, listed under Postemergence, Rate 250 g/ha, scale 0 to 10, 0 no effect, 10 complete control
[16] = Preemergence, Rate 62 g/ha, scale of 0 to 10 where 0 is no effect and 10 is complete control
[17] = Preemergence, Rate 125 g/ha, 0 is no effect, 10 is complete control
[18] = Preemergence, Rate 250 g/ha, scale 0 to 10, 0 is no effect, 10 is complete control
[19] = Preemergence, Rate 500 g/ha, scale of 0 to 10 where 0 is no effect and 10 is complete control
[20] = Rate 62 g/ha, Postemergence, scale of 0 to 10 where 0 is no effect and 10 is complete control
[21] = Rate 125 g/ha, Postemergence, scale 0 to 10
[22] = Rate 500 g/ha, Postemergence, scale 0 to 10
[23] = Rate 250 g/ha, Pre-emergence, flood-test species, scale 0 to 10, 0 is no effect, 10 is complete control
[24] = Postemergence, Rate 250 g/ha, scale 0 to 10
[25] = Preemergence, Rate 125 g/ha, scale of 0 to 10 where 0 is no effect and 10 is complete control
[26] = Preemergence, Rate 500 g/ha, scale 0 to 10, 0 is no effect, 10 is complete control
[27] = Rate 62 g/ha, Postemergence, scale 0 to 10 (0 no effect, 10 complete control)
[28] = Rate 125 g/ha, Postemergence, scale 0 to 10, 0 is no effect, 10 is complete control
[29] = Rate 62 g/ha, flood test species, Pre-emergence
[30] = Rate 125 g/ha, flood test species
[31] = Rate 500 g/ha, Pre-emergence, flood test species, scale 0 to 10 (0 no effect, 10 complete control)
[32] = Postemergence, Rate 125 g/ha, scale 0 to 10, 0 is no effect, 10 is complete control
[33] = Postemergence, Rate 250 g/ha, scale 0 to 10, 0 is no effect, 10 is complete control

Cc1ccccc1Cn1c(=O)on(C(=O)N(c2ccc(F)cc2F)C(C)C)c1=O [Compound 87]
Cocklebur plant response rating [1, 5]: 0 | Cocklebur plant response rating [1, 6]: 2 | Cocklebur plant response rating [1, 7]: 0 | Plant response rating, Cocklebur [1, 8]: 0 | Plant response rating, Cocklebur [1, 9]: 0 | Cocklebur plant response rating [1, 10]: 0 | Cocklebur plant response rating [1, 11]: 1 | Cocklebur plant response rating [1, 12]: 2 | Ducksalad plant response rating [2, 5]: 0 | Ducksalad plant response rating ([2]; Rate 31 g/ha, Postemergence section (flood test species), scale 0 to 10): 0 | Ducksalad plant response rating [2, 13]: 0 | Ducksalad plant response rating ([2]; Rate 250 g/ha, headed Pre-emergence (flood test species), scale 0 to 10 (0 no effect, 10 complete control)): 0 | Plant response rating, Ducksalad [2, 14]: 0 | Ducksalad plant response rating ([2]; Rate 1000 g/ha, Pre-emergence (as headed), scale 0 to 10): 0 | Ducksalad plant response rating ([2]; Rate 2000 g/ha, Pre-emergence (as headed), scale 0 to 10): 0 | Ducksalad plant response rating [2, 15]: 0 | Soybean plant response rating [3, 5]: 2 | Soybean plant response rating [3, 6]: 2 | Soybean plant response rating [3, 7]: 0 | Plant response rating, Soybean [3, 8]: 0 | Plant response rating, Soybean [3, 9]: 0 | Soybean plant response rating [3, 10]: 4 | Soybean plant response rating [3, 11]: 2 | Soybean plant response rating [3, 12]: 5 | Velvetleaf plant response rating [4, 5]: 0 | Velvetleaf plant response rating [4, 6]: 0 | Velvetleaf plant response rating [4, 7]: 0 | Plant response rating, Velvetleaf [4, 8]: 0 | Plant response rating, Velvetleaf [4, 9]: 3 | Velvetleaf plant response rating [4, 10]: 0 | Velvetleaf plant response rating [4, 11]: 0 | Velvetleaf plant response rating [4, 12]: 1

CSc1ccc(N(C(=O)n2oc(=O)n(-c3ccccc3C)c2=O)C(C)C)cc1 [Compound 205]
Cocklebur plant response rating [1, 16]: 0 | Cocklebur plant response rating (0 to 10 scale) [1, 17]: 0 | Cocklebur plant response rating [1, 18]: 0 | Plant response rating, Cocklebur [1, 19]: 0 | Cocklebur plant response rating [1, 20]: 0 | Cocklebur plant response rating [1, 21]: 1 | Plant response rating (0 to 10; 0 is no effect, 10 is complete control), Cocklebur ([1]; Rate 250 g/ha, Postemergence): 1 | Cocklebur plant response rating [1, 22]: 2 | Ducksalad plant response rating ([2]; Rate 62 g/ha, headed Pre-emergence (flood test species), scale 0 to 10 (0 no effect, 10 complete control)): 0 | Ducksalad plant response rating ([2]; Rate 125 g/ha, Pre-emergence, flood test species, scale 0 to 10 where 0 is no effect and 10 is complete control): 0 | Ducksalad plant response rating [2, 23]: 0 | Plant response rating, Ducksalad [2, 14]: 0 | Soybean plant response rating [3, 16]: 0 | Soybean plant response rating (0 to 10 scale) [3, 17]: 0 | Soybean plant response rating [3, 18]: 0 | Plant response rating, Soybean [3, 19]: 0 | Soybean plant response rating [3, 20]: 0 | Soybean plant response rating [3, 21]: 1 | Plant response rating (0 to 10; 0 is no effect, 10 is complete control), Soybean ([3]; Rate 250 g/ha, Postemergence): 2 | Soybean plant response rating [3, 22]: 2 | Velvetleaf plant response rating [4, 16]: 0 | Velvetleaf plant response rating [4, 18]: 0 | Plant response rating, Velvetleaf [4, 19]: 0 | Velvetleaf plant response rating [4, 20]: 0 | Velvetleaf plant response rating [4, 21]: 0 | Plant response rating (0 to 10; 0 is no effect, 10 is complete control), Velvetleaf ([4]; Rate 250 g/ha, Postemergence): 0

CC(C)N(C(=O)n1oc(=O)n(CC(=O)N(C)C)c1=O)c1ccc(Cl)cc1 [Compound 477]
Cocklebur plant response rating [1, 24]: 0 | Cocklebur plant response rating ([1]; Postemergence, Rate 500 g/ha, scale of 0 to 10 where 0 is no effect and 10 is complete control): 0 | Plant response rating, Cocklebur [1, 16]: 0 | Plant response rating, Cocklebur [1, 25]: 0 | Cocklebur plant response rating [1, 18]: 0 | Cocklebur plant response rating [1, 26]: 0 | Cocklebur plant response rating [1, 27]: 0 | Cocklebur plant response rating [1, 28]: 0 | Plant response rating, Ducksalad (0 to 10 scale, 0 is no effect, 10 is complete control) [2, 29]: 0 | Ducksalad plant response rating (0 to 10 scale, 0 is no effect, 10 is complete control) [2, 30]: 0 | Ducksalad plant response rating ([2]; Rate 250 g/ha, Pre-emergence (flood test species), scale 0 to 10, 0 is no effect, 10 is complete control): 0 | Ducksalad plant response rating [2, 31]: 0 | Soybean plant response rating [3, 24]: 2 | Plant response rating, Soybean [3, 16]: 0 | Plant response rating, Soybean [3, 25]: 0 | Soybean plant response rating [3, 18]: 3 | Soybean plant response rating [3, 26]: 4 | Soybean plant response rating [3, 27]: 1 | Soybean plant response rating [3, 28]: 1 | Velvetleaf plant response rating [4, 24]: 0 | Plant response rating, Velvetleaf [4, 16]: 0 | Plant response rating, Velvetleaf [4, 25]: 0 | Velvetleaf plant response rating [4, 18]: 0 | Velvetleaf plant response rating [4, 26]: 0 | Velvetleaf plant response rating [4, 27]: 0 | Velvetleaf plant response rating [4, 28]: 0

COc1cccc(C)c1-n1c(=O)on(C(=O)N(c2ccc(F)cc2F)C(C)C)c1=O [Compound 74]
Cocklebur plant response rating [1, 5]: 0 | Cocklebur plant response rating [1, 6]: 0 | Cocklebur plant response rating [1, 7]: 0 | Plant response rating, Cocklebur [1, 8]: 0 | Plant response rating, Cocklebur [1, 9]: 0 | Cocklebur plant response rating [1, 10]: 0 | Cocklebur plant response rating [1, 11]: 0 | Cocklebur plant response rating [1, 12]: 4 | Ducksalad plant response rating [2, 5]: 0 | Ducksalad plant response rating [2, 13]: 0 | Ducksalad plant response rating ([2]; Rate 500 g/ha, listed under Postemergence (flood test species), scale 0 to 10, 0 no effect, 10 complete control): 0 | Ducksalad plant response rating [2, 15]: 0 | Soybean plant response rating [3, 5]: 0 | Soybean plant response rating [3, 6]: 1 | Soybean plant response rating [3, 7]: 0 | Plant response rating, Soybean [3, 8]: 0 | Plant response rating, Soybean [3, 9]: 0 | Soybean plant response rating [3, 10]: 0 | Soybean plant response rating [3, 12]: 1 | Velvetleaf plant response rating [4, 5]: 2 | Velvetleaf plant response rating [4, 6]: 4 | Velvetleaf plant response rating [4, 7]: 0 | Plant response rating, Velvetleaf [4, 8]: 0 | Plant response rating, Velvetleaf [4, 9]: 0 | Velvetleaf plant response rating [4, 10]: 0 | Velvetleaf plant response rating [4, 11]: 4 | Velvetleaf plant response rating [4, 12]: 4

Cc1nnsc1Cn1c(=O)on(C(=O)N(c2ccccc2)C(C)C)c1=O [Compound 378]
Plant response rating, Cocklebur [1, 32]: 0 | Plant response rating, Cocklebur [1, 33]: 0 | Plant response rating, Cocklebur [1, 7]: 0 | Cocklebur plant response rating (0 to 10 scale) ([1]; Preemergence, Rate 125 g/ha): 0 | Cocklebur plant response rating [1, 9]: 0 | Cocklebur plant response rating [1, 19]: 0 | Cocklebur plant response rating [1, 20]: 0 | Plant response rating, Cocklebur [1, 12]: 1 | Plant response rating, Ducksalad (0 to 10 scale, 0 is no effect, 10 is complete control) [2, 29]: 0 | Ducksalad plant response rating (0 to 10 scale, 0 is no effect, 10 is complete control) [2, 30]: 0 | Ducksalad plant response rating [2, 23]: 0 | Ducksalad plant response rating [2, 31]: 0 | Plant response rating, Soybean [3, 32]: 0 | Plant response rating, Soybean [3, 33]: 0 | Plant response rating, Soybean [3, 7]: 0 | Soybean plant response rating (0 to 10 scale) ([3]; Preemergence, Rate 125 g/ha): 0 | Soybean plant response rating [3, 9]: 0 | Soybean plant response rating [3, 19]: 0 | Soybean plant response rating [3, 20]: 0 | Plant response rating, Soybean [3, 12]: 2 | Plant response rating, Velvetleaf [4, 32]: 0 | Plant response rating, Velvetleaf [4, 33]: 0 | Plant response rating, Velvetleaf [4, 7]: 0 | Velvetleaf plant response rating (0 to 10 scale) ([4]; Preemergence, Rate 125 g/ha): 0 | Velvetleaf plant response rating [4, 9]: 0 | Velvetleaf plant response rating [4, 19]: 0 | Velvetleaf plant response rating [4, 20]: 0 | Plant response rating, Velvetleaf [4, 12]: 3
